# Results from PMC7265429, “Characterization of a new small-molecule inhibitor of HDAC6 in glioblastoma” (Cell Death & Disease, 2020).
# Test system: GNS166 cells
# Assay: Microarray whole-transcriptome gene expression analysis
# Type: cell-based, human
# Details: DMSO vs SAHA, downregulated
# Protocol: Whole-transcriptome analysis was performed from 300 ng of RNA using HuGene-2_0-st-v1 expression array (Affymetrix), which covers 48,226 transcripts. Raw data were first checked for quality purposes through the Affymetrix® Expression Console™ Software v1.4.1 and TAC software v4.0. Then, data were normalized using the Robust Multi-array Average (RMA) and analyzed by Limma tool. Probesets with FDR-corrected p-values smaller than 0.05 were selected. Functional enrichment on Gene Ontology (GO) biological processes was performed on a smaller subset of the differentially expressed genes (corrected p-value < 0.001) by means of Broad Institute GSEA. […] The data that support this study have been deposited in NCBI´s Gene Expression Omnibus and are accessible through GEO series accession number GSE143887.
smiles,measurement,setting,value
"O=C(CCCCCCC(=O)Nc1ccccc1)NO [SAHA, Suberoylanilide hydroxamic acid]",logFC IRAK1,transcript TC0X[…].hg.1,-1.235
same,logFC B3GALT6,transcript TC0100006494.hg.1,-0.9983
same,logFC HMGN2,transcript TC0100007463.hg.1,-1.008
same,logFC CDCA8,transcript TC0100007841.hg.1,-1.807
same,logFC ERMAP,transcript TC0100008033.hg.1,-2.3938
same,logFC KIF2C,transcript TC0100008101.hg.1,-1.858
same,logFC CMPK1,transcript TC0100008190.hg.1,-1.434
same,logFC NEXN,transcript TC0100008807.hg.1,-1.823
same,logFC HIST2H2AA3,transcript TC0100009876.hg.1,-1.529
same,logFC HIST2H3A,transcript TC0100009877.hg.1,-1.612
same,logFC GABPB2,transcript TC0100009939.hg.1,-1.449
same,logFC CKS1B,transcript TC0100010100.hg.1,-1.171
same,logFC PMF1,transcript TC0100010161.hg.1,-1.537
same,logFC NUF2,transcript TC0100010397.hg.1,-2.331
same,logFC FAM163A,transcript TC0100010786.hg.1,-1.762
same,logFC CENPF,transcript TC0100011581.hg.1,-1.482
same,logFC EPHA2,transcript TC0100013028.hg.1,-1.043
same,logFC STMN1,transcript TC0100013369.hg.1,-1.036
same,logFC HIST2H3A,transcript TC0100015701.hg.1,-1.662
same,logFC ASPM,transcript TC0100016831.hg.1,-1.487
same,logFC DDX59,transcript TC0100016893.hg.1,-1.42
same,logFC NUCKS1,transcript TC0100017075.hg.1,-1.264
same,logFC EIF2D,transcript TC0100017100.hg.1,-1.459
same,logFC CD34,transcript TC0100017142.hg.1,-2.059
same,logFC LIN9,transcript TC0100017523.hg.1,-1.223
same,logFC ZBTB8A,transcript TC0100018209.hg.1,-1.532
same,logFC HIST2H2AA4,transcript TC0100018482.hg.1,-1.569
same,logFC IAH1,transcript TC0200006648.hg.1,-1.549
same,logFC RRM2,transcript TC0200006677.hg.1,-1.424
same,logFC KCNIP3,transcript TC0200008464.hg.1,-2.439
same,logFC NCAPH,transcript TC0200008502.hg.1,-2.071
same,logFC GALNT5,transcript TC0200009739.hg.1,-2.15
same,logFC CFLAR,transcript TC0200010443.hg.1,-1.832
same,logFC ADI1,transcript TC0200011551.hg.1,-2.286
same,logFC EVA1A,transcript TC0200013135.hg.1,-1.744
same,logFC NMI,transcript TC0200014610.hg.1,-2.309
same,logFC SPC25,transcript TC0200014845.hg.1,-1.44
same,logFC SLC16A14,transcript TC0200015971.hg.1,-1.405
same,logFC HJURP,transcript TC0200016099.hg.1,-1.261
same,logFC CENPA,transcript TC0200016417.hg.1,-1.421
same,logFC SPDYA,transcript TC0200016423.hg.1,-1.919
same,logFC ACYP2,transcript TC0200016447.hg.1,-1.266
same,logFC FANCD2,transcript TC0300006575.hg.1,-1.767
same,logFC KIF15,transcript TC0300007223.hg.1,-1.9928
same,logFC ARHGAP31,transcript TC0300008467.hg.1,-1.69
same,logFC FAIM,transcript TC0300008952.hg.1,-1.871
same,logFC RTP4,transcript TC0300009799.hg.1,-1.468
same,logFC SUCLG2,transcript TC0300011436.hg.1,-1.146
same,logFC BDH1,transcript TC0300013751.hg.1,-1.665
same,logFC NAALADL2,transcript TC0300013904.hg.1,-1.839
same,logFC KCNMB2,transcript TC0300013906.hg.1,-1.816
same,logFC NEIL3,transcript TC0400009396.hg.1,-0.9384
same,logFC CCNA2,transcript TC0400011748.hg.1,-1.45
same,logFC GPM6A,transcript TC0400012473.hg.1,-1.528
same,logFC TRIP13,transcript TC0500006472.hg.1,-1.825
same,logFC NDUFS6,transcript TC0500006523.hg.1,-0.9474
same,logFC IL7R,transcript TC0500007138.hg.1,-2.627
same,logFC NNT,transcript TC0500007303.hg.1,-1.728
same,logFC CCNB1,transcript TC0500007665.hg.1,-1.603
same,logFC KIF20A,transcript TC0500008777.hg.1,-2.05
same,logFC HIGD2A,transcript TC0500009587.hg.1,-1.228
same,logFC NSD1,transcript TC0500009610.hg.1,-1.443
same,logFC ARSB,transcript TC0500011228.hg.1,-1.571
same,logFC BRD8,transcript TC0500012162.hg.1,-1.077
same,logFC CRHBP,transcript TC0500013193.hg.1,-2.74
same,logFC PCBD2,transcript TC0500013230.hg.1,-1.097
same,logFC FAM169A,transcript TC0500013328.hg.1,-1.569
same,logFC HIST1H4C,transcript TC0600007268.hg.1,-1.755
same,logFC HIST1H2BF,transcript TC0600007282.hg.1,-1.711
same,logFC HIST1H4E,transcript TC0600007284.hg.1,-2.005
same,logFC HIST1H2AE,transcript TC0600007285.hg.1,-1.564
same,logFC HIST1H2AL,transcript TC0600007380.hg.1,-1.235
same,logFC GTF3C6,transcript TC0600009140.hg.1,-2.124
same,logFC HIST1H4B,transcript TC0600011123.hg.1,-1.235
same,logFC HIST1H3B,transcript TC0600011124.hg.1,-1.868
same,logFC HIST1H3D,transcript TC0600011135.hg.1,-1.444
same,logFC HIST1H2BG,transcript TC0600011136.hg.1,-1.568
same,logFC HIST1H4H,transcript TC0600011145.hg.1,-1.26
same,logFC HIST1H2BJ,transcript TC0600011184.hg.1,-1.604
same,logFC HIST1H2BK,transcript TC0600011185.hg.1,-1.804
same,logFC PSMB8,transcript TC0600011507.hg.1,-1.143
same,logFC DNPH1,transcript TC0600011870.hg.1,-1.264
same,logFC FBXO5,transcript TC0600013602.hg.1,-1.287
same,logFC HIST1H2AG,transcript TC0600014083.hg.1,-2.001
same,logFC NUDT3,transcript TC0600014283.hg.1,-1.135
same,logFC LANCL2,transcript TC0700007610.hg.1,-1.812
same,logFC GTF2I,transcript TC0700008010.hg.1,-1.635
same,logFC MEPCE,transcript TC0700008542.hg.1,-1.622
same,logFC CAV1,transcript TC0700008873.hg.1,-0.9681
